Assay results: patent US8834858B2, “Treatment for dyslipidemia” (Solvotrin Therapeutics Ltd., priority 2011, dated 2014)
“Also recorded” adds a separate entry of the source. Like-named read-outs stand apart in the source and are kept apart here.

How the values were obtained:
[1] = Stomach irritation on administration of compound I; assay type: in vivo; conditions: statement in description; test not named
Method: Therefore, stomach irritation is not observed with the administration of isosorbide-2-acetylsalicylate-5-nicotinic acid (I). […] In some embodiments, the present invention provides a composition comprising isosorbide-2-acetylsalicylate-5-nicotinic acid (I) wherein the composition protects the gastrointestinal mucosa from irritation and inflammation.
Ulcerogenic effects of aspirin and aspirin pro-drugs ST0701, ST0702, and ST0703 were determined in rabbits using the following procedure. Healthy female rabbits (n=2 per group) were dosed (by oral gavage) for 3 consecutive days with 30 mg/kg of aspirin or the molar equivalent of ST0702 and the other pro drugs. Four hours post-dose on the final day, the rabbits were euthanized using an overdose of pentobarbitone and their stomachs and small intestine removed, washed with physiological saline, opened along the greater curvature and examined. The area (square millimeters) of both non-haemorrhagic and haemorrhagic lesions developed in the stomach/intestines were measured with a square grid under a dissecting microscope.

[2] = Incubation with pig intestinal S9 fraction; assay type: in vitro ADME
Method: FIG. 2 depicts a progress curve for the disappearance of ST0702 following incubation with pig intestinal S9 fraction.
(§1) Hydrolysis kinetics of isosorbide diaspirinate,” Eur. J. Pharm. Sciences 16 2002 297-304.

[3] = Incubation with mouse intestinal preparation; assay type: in vitro ADME
[4] = Incubation with microsomes from the human intestinal wall; assay type: in vitro ADME
Method: FIG. 7 depicts a progress curve following incubation of ST0702 in the presence of microsomes from the human intestinal wall.
as §1

[5] = Incubation in human gastric juice; assay type: in vitro ADME; conditions: over 60 minutes
Text: as §1

thromboxane B2 (TxB2) = experiment: NHP crossover study: ex-vivo serum TxB2; assay type: in vivo, cynomolgus monkeys
Method: (§2) For TxB2, an additional 0.4 mL whole blood aliquots were placed in siliconised glass tubes to induce a clotting response and the supernatants were analysed for TxB2 using a Luminex ELISA immunoassay. PGD2 was analysed from serum directly using a Luminex ELISA immunoassay.

[6] = Hydrolysis of ST0702 in 50% human plasma; assay type: in vitro ADME; conditions: 50% human plasma diluted with pH 7.4 buffer, 37° C.
Method: FIG. 1 depicts a progress curve for the disappearance of isosorbide-2-aspirinate-5-nicotinate (ST0702) following incubation (in vitro) in 50% human plasma diluted with pH 7.4 buffer at 37° C.
A Waters Spherisorb® (4 μm) C18 3.9×250 mm column was used for the plasma and enzyme study samples. The enzyme and plasma study samples were analysed using a gradient method employing a mobile phase consisting of pH 3.19 phosphate buffer:acetonitrile 90:10 grading to 10:90 over the first ten minutes then back to 65:35 to 12 minutes and grading to 90:10 to 17 minutes at which it was held to 30 minutes. The eluent in both methods was monitored at 230 nm and peak identity and homogeneity confirmed by PDA analysis. Quantitation was performed by comparison of peak areas with external standards run under the same conditions at about the same concentration. The flow rate was 1 ml/min.
For the hydrolysis experiments pooled plasma or serum solutions (4 ml) were prepared by centrifugation of citrated human venous blood and dilution with pH 7.4 phosphate buffer as appropriate. Whole blood was used undiluted. […] 20 μl aliquots of the supernatant were analysed by HPLC. Hydrolysis was monitored until consumption of the parent ester. […] Cholinesterase activity of plasma, serum and whole blood was evaluated using the Ellman approach with butyryl thiocholine as substrate. […]

serum glucose = experiment: NHP crossover study: serum glucose; conditions: for serum glucose change from baseline: 1 hour post dose
Method: (§3) The primary study endpoint is change in plasma LDL cholesterol and Apolipoprotein B at 48 hours. An aliquot of 300 μL of serum transferred to a cryovial and was immediately placed in a freezer set to maintain −70° C. until analyzed for clinical chemistry (LDL cholesterol, Apolipoprotein B, TGs, glucose) using a standard Roche Analyser.

[7] = tested on: LDL cholesterol, Apolipoprotein B, TGs; experiment: NHP crossover study: clinical chemistry (LDL-C, ApoB, TG); conditions: for increase in TG levels (non-significant) / reduction from baseline in LDL cholesterol / reduction from baseline in apolipoprotein B: baseline to 48 hours; for reduction from baseline in LDL cholesterol / reduction from baseline in apolipoprotein B: 28 mg/kg niacin equivalents daily oral gavage, n=6
Method: as §3

prostaglandin D2 (PGD2) = experiment: NHP crossover study: serum PGD2; assay type: in vivo, cynomolgus monkeys; conditions: for PGD2 AUC: over 24 hours post dosing, equimolar doses
Method: as §2

[8] = Incubation in diluted human intestinal contents; assay type: in vitro ADME; conditions: prolonged period
Text: as §1

[9] = pH 7.4
Method: Microsomes from human hepatocytes (post mortem tissue) were diluted with pH 7.4 buffer and the suspension warmed to 37° C. ST0702 was introduced and samples withdrawn at successive time intervals.
Hydrolysis kinetics of isosorbide diaspirinate,” Eur. J. Pharm.

[10] = Incubation with rat intestinal preparation; assay type: in vitro ADME
[11] = Incubation with rabbit intestinal preparation; assay type: in vitro ADME
[12] = tested on: LDL cholesterol, HDL cholesterol, TG; conditions: adult dyslipidemias; cited from earlier work
PGD2 receptor-1 (DP1) = PGD2 receptor-1 (DP1) (Homo sapiens, UniProt Q13258); conditions: nicotinic acid without vs with added laropiprant (Kush 2009); cited from earlier work
[13] = secondary prevention; cited from earlier work
[14] = 8 and 14 months, on statin therapy; cited from earlier work
blood glucose = conditions: cited from earlier work; for patients with diabetes requiring a change in hypoglycemic therapy: in vivo
[15] = crystalline nicotinic acid (>1 g), cited from earlier work
[16] = cited from earlier work
[17] = cited from earlier work; remark: listed apart in the source
[18] = cited from earlier work; remark: listed apart in the source
LDL, HDL = conditions: cited from earlier work

PGD2 receptor-1 (DP1), sequence (Q13258 whole entry): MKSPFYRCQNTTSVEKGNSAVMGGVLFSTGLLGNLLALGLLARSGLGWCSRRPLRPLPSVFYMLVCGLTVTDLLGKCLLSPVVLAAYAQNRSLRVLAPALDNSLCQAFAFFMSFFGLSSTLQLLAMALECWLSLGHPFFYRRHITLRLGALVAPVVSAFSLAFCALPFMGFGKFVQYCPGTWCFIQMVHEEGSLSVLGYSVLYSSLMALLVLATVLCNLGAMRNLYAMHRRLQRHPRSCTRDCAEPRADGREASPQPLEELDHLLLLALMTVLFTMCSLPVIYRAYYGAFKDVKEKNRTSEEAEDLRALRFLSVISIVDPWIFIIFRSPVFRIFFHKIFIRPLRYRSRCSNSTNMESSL

Structure (SMILES): CC(=O)Oc1ccccc1C(=O)O[C@H]1CO[C@H]2[C@@H]1OC[C@H]2OC(=O)c1cccnc1 [ST0702, isosorbide-2-aspirinate-5-nicotinate]
- stomach irritation [1]: not observed
- aspirin production from ST0702 [2]: do not produce aspirin
- aspirin production from ST0702 [3]: do not produce aspirin
- hydrolysis pattern in human intestinal wall microsomes [4]: hydrolysis predominantly at the isosorbide-2-position liberating aspirin and isosorbide-5-nicotinate
- metabolism in human gastric juice [5]: not metabolized
- serum TxB2 suppression (thromboxane B2 (TxB2); at 24 and 48 hours): > 95%
- serum TxB2 levels (thromboxane B2 (TxB2); from 15 minutes on, within group and vs niacin): significantly reduced
- disappearance of ST0702 / conversion to hydrolysis products [6]: rapid conversion to a series of hydrolysis products
- serum glucose change from baseline (serum glucose): significant decrease
- plasma glucose versus baseline (serum glucose; 4 hours post dose): remained below baseline levels; also recorded: significant reduction
- TG levels at 48 hours (follow up) [7]: 55 ± 24 mg/dL
- TG levels at baseline [7]: 59 ± 29 mg/dL
- increase in TG levels (non-significant) [7]: 4.4%
- reduction from baseline in LDL cholesterol [7]: 53%
- reduction from baseline in apolipoprotein B [7]: 42%
- reduction in PGD2 AUC levels compared to nicotinic acid (prostaglandin D2 (PGD2); over 24 hours): 8 fold
- PGD2 AUC (prostaglandin D2 (PGD2)): 16.2 ± 6.4 ng·h/mL
- stability in human intestinal contents [8]: effectively unchanged
- hydrolysis pattern in human liver microsomes [9]: more significant direct hydrolysis at position 5 leading to direct nicotinic acid production
- aspirin production from ST0702 [10]: do not produce aspirin
- aspirin production from ST0702 [11]: do not produce aspirin

Structure (SMILES): O=C(O)c1cccnc1 [nicotinic acid]
- HDL cholesterol [12]: +15 to +35%
- LDL cholesterol [12]: −5 to −25%
- TG [12]: −20 to −50%
- rate of moderate/severe flushing (PGD2 receptor-1 (DP1)): 50%
- coronary artery revascularization, non-fatal MI, stroke and TIA [13]: significant reduction
- CIMT [14]: significant reduction
- increase in fingerstick glucose levels (blood glucose; doses <2.5 g): 4% to 5
- patients with diabetes requiring a change in hypoglycemic therapy (blood glucose): 10-35%
- patients with diabetes requiring a change in hypoglycemic therapy (blood glucose; listed as Nicotinic acid): 10% to 35
- half life ([15]; oral): about 60 minutes
- time to peak plasma concentrations ([15]; oral): 30 to 60 min
- oral absorption [15]: almost completely absorbed
- serum glucose change from baseline (serum glucose): significant decrease
- serum glucose after feeding (serum glucose; following animal feeding between 1-2 hours post dose): rebound to baseline levels
- reduction of incidence of non-fatal re-infarction / risk of myocardial infarction ([16]; five year follow up, men with history of MI): 27%
- decrease in all-cause (long-term) mortality ([16]; mean follow-up of 15 years): 11%
- patients discontinuing treatment because of flushing ([17]; Jacobson 2010): 5-20%
- users experiencing mild or moderate flushing ([17]; review of clinical trials): > 60%
- TG levels at 48 hours (follow up) [7]: 64 ± 31 mg/dL
- TG levels at baseline [7]: 50 ± 10 mg/dL
- increase in TG levels (non-significant) [7]: 23.3%
- reduction from baseline in LDL cholesterol [7]: 33%
- reduction from baseline in apolipoprotein B [7]: 24%
- HDL increase ([18]; 1,000 mg once daily added to simvastatin): 21%
- carotid intima-media thickness (CIMT) ([18]; after 12 months): unchanged
- PGD2 AUC (prostaglandin D2 (PGD2)): 128.3 ± 38.2 ng·h/mL
- additional lowering of LDL levels (LDL, HDL; 1 g/day added to stable statin): 8%
- additional raise of HDL levels (LDL, HDL; 1 g/day added to stable statin): 24%
- additional lowering of LDL (LDL, HDL; 2 g/day added to stable statin): 20%
- additional raise of HDL cholesterol levels (LDL, HDL; 2 g/day added to stable statin): 27%
